Laboratory results: patent US8927484B2, “Antiviral compounds” (Gilead Sciences, Inc., priority 2009, dated 2015)

Tests used:
[1] = tested on: Replicon cells harboring H77 (genotype 1a) or Con1 (genotype 1b) HCV RNA and Renilla luciferase reporter; assay: High Throughput Replicon Assay (HTBS); assay type: cell-based; settings: for inhibition at 1 µM: 72 h, read-out: INH @1 μM (Mean)
Procedure: High Throughput Replicon Assay (HTBS)
Replicon cells harboring H77 (genotype 1a) or Con1 (genotype 1b) HCV RNA and Renilla luciferase reporter were seeded in 384-well black plates at a density of 1.6×10^3 cells per well in 90 μl of DMEM culture medium, excluding G-418. Compounds were serially diluted in 100% DMSO and added to cells at a 1:225 dilution, achieving a final concentration of 0.44% DMSO in a total volume of 90 μL with a Biotek uFlow Workstation. Cell plates were incubated at 37° C. with 5% CO2 for 3 days, after which culture media were removed and cells were assayed for luciferase activity as a marker for replication level. Luciferase expression was measured using Dual-Glo luciferase assay reagents (Promega, Madison, Wis.). Briefly, 20 μL of Dual-Glo luciferase buffer was added to lyse the cells for 10 min and subsequently 20 μL of a diluted Dual-Glo Stop & Glo substrate (1:100) was added to each well. Luminescence signal was measured on a Perkin Elmer Envision Plate Reader after incubation for 10 minute. Luciferase levels were converted into percentages relative to the untreated controls (defined as 100%) and data were fit to the logistic dose response equation y=a/(1+(x/b)^c) using XLFit4 software (IDBS, Emeryville, Calif.). EC50 values were calculated from the resulting equations.

HCV NS3 protease = target: T1, HCV NS3 protease (Hepatitis C virus genotype 1a, UniProt P27958); assay: HCV NS3 Protease IC50 Determination (FRET); assay type: biochemical; settings: result in words
T1 construct: 2-10 nM of purified NS3 protease domains were pre-incubated
T1 sequence (P27958 1027-1208): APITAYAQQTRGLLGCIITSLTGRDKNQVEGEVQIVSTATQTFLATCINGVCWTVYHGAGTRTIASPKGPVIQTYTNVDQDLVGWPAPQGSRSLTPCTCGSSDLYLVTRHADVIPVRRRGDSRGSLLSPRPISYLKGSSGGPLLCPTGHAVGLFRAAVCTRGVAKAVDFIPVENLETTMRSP

Structure (SMILES)	inhibition at 1 µM [1] [%]	activity in the cellular assay ([1]; result in words)	activity in the enzymatic assay (HCV NS3 protease)
C=C[C@@H]1C[C@]1(NC(=O)[C@@H]1C[C@@H](Oc2cc(-c3nc(C(C)C)cs3)nc3c(Cl)c(OCCN4CCOCC4)ccc23)[C@H]2CN(C(=O)OC(C)(C)C)[C@H]([C@@H](C)OC)C(=O)N21)C(=O)NS(=O)(=O)C1CC1 [Example 54]	> 45	–	–
C=C[C@@H]1C[C@]1(NC(=O)[C@@H]1C[C@@H](Oc2cc(-c3nc(C(C)C)cs3)nc3c(Cl)c(OCCN4CCOCC4)ccc23)[C@H]2CN(C(=O)OC(C)(C)C)[C@H]([C@H](C)OC)C(=O)N21)C(=O)NS(=O)(=O)C1CC1 [Example 55]	> 95	–	–
C=C[C@@H]1C[C@]1(NC(=O)[C@@H]1C[C@@H](Oc2cc(-c3nc(C(C)C)cs3)nc3c(C)c(OC)ccc23)[C@H]2CN(C(=O)OC(C)(C)C)[C@H](C(C)C)C(=O)N21)C(=O)NS(=O)(=O)C1CC1 [Example 58]	> 85	–	–
CC[C@@H]1C[C@]1(NC(=O)[C@@H]1C[C@@H](Oc2cc(-c3nc(C(C)C)cs3)nc3c(C)c(OC)ccc23)[C@H]2CN(C(=O)OC(C)(C)C)[C@H](C(C)C)C(=O)N21)C(=O)NS(=O)(=O)C1CC1 [Example 59]	> 45	–	–
C=C[C@@H]1C[C@]1(NC(=O)[C@@H]1C[C@@H](Oc2cc(-c3nc(C(C)C)cs3)nc3c(C)c(OC)ccc23)[C@H]2CN(C)[C@H](C(C)C)C(=O)N21)C(=O)NS(=O)(=O)C1CC1 [Example 62]	> 99	–	–
CC[C@@H]1C[C@]1(NC(=O)[C@@H]1C[C@@H](Oc2cc(-c3nc(C(C)C)cs3)nc3c(C)c(OC)ccc23)[C@H]2CN(C)[C@H](C(C)C)C(=O)N21)C(=O)NS(=O)(=O)C1CC1 [Example 63]	> 40	–	–
C=C[C@@H]1C[C@]1(NC(=O)[C@@H]1C[C@@H](Oc2cc(-c3nc(C(C)C)cs3)nc3c(Cl)c(OCCN4CCOCC4)ccc23)[C@H]2CN(C(=O)OC(C)(C)C)[C@H](C3CCOCC3)C(=O)N21)C(=O)NS(=O)(=O)C1CC1 [Example 73]	> 90	–	–
CC[C@@H]1C[C@]1(NC(=O)[C@@H]1C[C@@H](Oc2cc(-c3nc(C(C)C)cs3)nc3c(Cl)c(OCCN4CCOCC4)ccc23)[C@H]2CN(C(=O)OC(C)(C)C)[C@H](C3CCOCC3)C(=O)N21)C(=O)NS(=O)(=O)C1CC1 [Example 74]	> 90	–	–
CC[C@@H]1C[C@]1(NC(=O)[C@@H]1C[C@@H](OC(=O)N2Cc3cccc(F)c3C2)[C@H]2CCCC(=O)N21)C(=O)NS(=O)(=O)C1CC1 [Example 90]	–	fails to demonstrate optimal activity	fails to demonstrate optimal activity
COc1ccc2c(O[C@@H]3C[C@H]4C(=O)N[C@]5(C(=O)NS(=O)(=O)C6CC6)C[C@H]5/C=C\CCCCC[C@@H]5C(=O)N4[C@@H]3CN5C(=O)OC(C)(C)C)cc(-c3cccc(C(C)C)n3)nc2c1Cl [Example 94]	> 99	–	–
